Measurements published in the NIST ThermoML archive (doi:10.1021/acs.jced.6b00219).
Numbers after ± are expanded uncertainties.

Key:
[1] = Molar enthalpy of transition or fusion; conditions: Crystal; DSC
[2] = Crystal; DTA

O=[N+]([O-])c1cn[nH]c1[N+](=O)[O-] [3,4-dinitro-1H-pyrazole]
Molar enthalpy of transition or fusion [1]: 2.81 ± 0.203 kcal/mol | Normal melting temperature [2]: 87.83 ± 1.1 °C
